This note sets out measurements from PubChem BioAssay AID602237 (National Center for Advancing Translational Sciences (NCATS), 2012).

Values after ≈ are worked out from the molar mass of the structure shown.

The subject of the series is aqueous kinetic solubility, PBS pH 7.4, LC-UV/MS. In words: qHTS for Activators of Human alpha-Glucosidase as a Potential Chaperone Treatment of Pompe Disease: Aqueous Solubility. Particulars: active compounds read high. The text has this:
Alpha-glucosidase is responsible for hydrolysis of terminal, non-reducing 1,4-linked alpha-D-glucose residues with release of alpha-D-glucose. It is a lysosomal hydrolase that is required for the degradation of a small percentage (1-3%) of cellular glycogen in human. Deficiency of this enzyme results in glycogen-storage disease type II (GSDII), also referred to as Pompe disease, an autosomal recessive disorder. Structurally normal glycogen is accumulated in lysosomes and cytoplasm in affected patients, primarily in muscle tissues. Excessive glycogen storage within lysosomes may interrupt normal functioning of other organelles and leads to cellular injury. In turn, this leads to enlargement and dysfunction of the entire organ involved (eg, cardiomyopathy and muscle weakness). It has reported that the improper folding and trafficking of alpha-glucosidase resulting from the genetic mutations may account for a significant number of Pompe patients. […]
1. […] Concentration of the supernatant was determined by LC-UV or LC-MS/MS […]

With `CCCN1CNc2c(c(=O)[nH]c(=S)n2Cc2ccc(OC)c(OC)c2)C1`, the solubility is 289 µM (≈ 109 µg/mL).
